Earlier results on 1 substance are cited in patent publication US20210363254A1, “PHARMACEUTICAL COMBINATIONS” (Novartis AG, priority 2018, published 2021).

This series concerns renal cell carcinoma (RCC). The following applies: RCC patients beyond first-line therapy; cited from earlier work.

As for “Nivolumab: inhibitor of the PD-1/PD-L1 interaction approved for use in RCC”, the “OS benefit compared with everolimus” value is 5.4 months and the “median OS” value is given as 25 months.
